Measured values reported in patent publication US4153727A, “Pharmaceutical compositions of a prostaglandin compound for rectal use in treating asthma” (priority 1977, dated 1979).

What was measured:
histamine [1] = assay: antiasthmatic effect, aerosol: protection against histamine-induced sneezing; type: in vivo; settings: aerosol 15 sec; histamine aerosol 0.1%; guinea-pigs
Experimental: (§1) Guinea-pigs were placed in a chamber and sprayed for 10 sec. with an aerosol of histamine solution (0.1%) and onset of sneezing was recorded. Animals that sneezed within 70-100 sec. were selected as controls. These animals were sprayed for 15 sec. with an aerosol of the test compounds. After 45 sec., the animals were sprayed with histamine and observed for 3 min.

histamine [2] = assay: antiasthmatic effect, oral: protection against histamine-induced sneezing; type: in vivo; settings: Cavia porcellus, 0.5 h, 30 min before histamine spray, guinea-pigs
Experimental: as §1
Guinea-pigs were sprayed for 10 sec with histamine 30 min after oral administration of the test compounds and observed for 3 min. The percent of amimals protected was determined.

[3] = diarrhea-producing effect, oral; settings: guinea pig, in vivo, guinea-pigs; for TD50: observed at 2-5 hrs and next morning, read-out: (A) Diarrhea-producing effect (b) ED50; for selectivity ratio: read-out: b/a (diarrhea-producing ED50 / oral antiasthmatic ED50)
Experimental: Ii. diarrhea-producing Effect
Test compounds were administered orally to guinea-pigs. The appearance of diarrhea (loose or watery feces) at every 2 hrs, 3 hrs, 4 hrs and 5 hrs period and next morning were noted.

histamine [4] = settings: earlier patents; cited from earlier work
[5] = tested on: bronchoconstriction induced by intravenous injection of histamine; assay: effect on air-way resistance (Konzett and Rossler), intraduodenal administration; type: in vivo, guinea-pig; settings: Cavia porcellus, 0.5 h, 30 min before i.v. histamine 3 μg/kg, anesthetized guinea-pigs, read-out: (B) Effect on air-way resistance ED50
Experimental: Iii. effect on Air-way Resistance
The air-way resistance of the guinea-pig lung was determined by the method of Konzett and Rossler (Arch. exp. Path. Pharmak., 195, 71-74(1940)). The bronchodilator activity of prostaglandins were expressed in terms of protective effect against bronchoconstriction induced by intravenous injection of histamine (3 μg/kg). Histamine was injected 30 min after intraduodenal administration of test compound to urethane anesthetized and artificially ventilated guinea-pigs.

hystamine = assay: Experiment 1: bronchodilator activity by hystamine spray method, rectal vs oral; type: in vivo, male guinea pigs; settings: 30 min; for Bronchodilator activity, effective / animals tested: oral (control)
Experimental: A suppository prepared using the compound of formula I and the oily base or water-soluble base was applied by rectal administration (this invention) to male guinea pigs fasted for 24 hours, each weighing about 550 g. On the other hand, a solution of the compound of formula I in physiological saline solution was applied by oral administration to guinea pigs under the same condition as above for control. After 30 minutes from the administration, the bronchodilator activity of the medicament was determined by a hystamine spray method.

[6] = tested on: respiratory tract contraction induced by hystamine; assay: 50% inhibition of respiratory tract contraction induced by hystamine, oral vs intravenous; type: in vivo; settings: 50% inhibition of hystamine-induced respiratory tract contraction
[7] = rectal administration: absorption, antitussive effect, diarrhea; type: in vivo
[8] = stability as inhalant (aerosol); type: physicochemical; settings: used as an inhalant (aerosol)
histamine [9] = settings: earlier patents; cited from earlier work; remark: listed apart in the source

| Structure (SMILES) | Antiasthmatic effect, Aerosol ED50 (histamine [1]) | ED50 (histamine [2]) | TD50 [3] | selectivity ratio [3] | antiasthmatic effect by oral administration (in words) (histamine [4]) | other results |
| --- | --- | --- | --- | --- | --- | --- |
| CCCC[C@@H](C)[C@H](O)/C=C/[C@H]1[C@H](O)CC(=O)[C@@H]1C/C=C\CCCC(=O)O [16(R)-methyl-PGE2, 11α,15(S)-dihydroxy-16(R)-methyl-9-oxo-5(cis)-13(trans)prostadienoic acid] | 0.011 µg/mL | 0.0175 mg/kg | 0.025 mg/kg | 1.43 | – | – |
| CCCC[C@H](C)[C@H](O)/C=C/[C@H]1[C@H](O)CC(=O)[C@@H]1C/C=C\CCCC(=O)O [16(S)-methyl-PGE2, 11α, 15(S)-dihydroxy-16(S)-methyl-9-oxo-5(cis)-13(trans)prostadienoic acid] | 0.009 µg/mL | 0.025 mg/kg | 0.1 mg/kg | 4 | – | – |
| COCCCCC[C@H](O)/C=C/[C@H]1[C@H](O)CC(=O)[C@@H]1C/C=C\CCCC(=O)O [20-methoxy-PGE2, 11α,15(S)-dihydroxy-20-methoxy-9-oxo-5(cis)-13(trans)Prostadienoic acid] | 0.15 µg/mL | > 0.8 mg/kg | – | – | does not show antiasthmatic effect | – |
| CCCCC[C@H](O)/C=C/[C@H]1[C@H](O)CC(=O)[C@@H]1C/C=C\CCCC(=O)O [Prostaglandin E2] | 0.15 µg/mL | > 0.8 mg/kg | – | – | – | ED50 [5]: > 0.8 mg/kg |
| COCCCC[C@H](C)[C@H](O)/C=C/[C@H]1[C@H](O)CC(=O)[C@@H]1C/C=C\CCCC(=O)O [compound of formula I, 11α,15(S)-dihydroxy-20-methoxy-16(S)-methyl-9-oxo-5(cis),13(trans)-prostadienoic acid] | – | 0.71 mg/kg | 0.14 mg/kg | 20 | excellent antiasthmatic effect | Bronchodilator activity, effective / animals tested (hystamine; 3.1 μg/kg): 1/6; Bronchodilator activity, effective / animals tested (hystamine; 6.3 μg/kg): 3/6; Bronchodilator activity, effective / animals tested (hystamine; 12.5 μg/kg): 4/6; Bronchodilator activity, effective / animals tested (hystamine; 25 μg/kg): 4/6; Bronchodilator activity, effective / animals tested (hystamine; 50 μg/kg): 5/6; Bronchodilator activity ED50 (hystamine; oral administration (control)): 0.007 mg/kg; effective amount (ED50) oral relative to intravenous injection [6]: about 2400 times; absorption through the intestine [7]: unexpectedly absorbed through the intestine; antitussive effect [7]: exhibits an antitussive effect; diarrhea [7]: does not cause diarrhea; stability of the medicament [8]: difficult to maintain the stability; antiasthmatic effect by aerosol administration (in words) (histamine [9]): excellent antiasthmatic effect |
